Measured values published in ChEMBL document CHEMBL3045368, “Design, synthesis, and biological activities of novel 2-cyanoacrylates containing oxazole, oxadiazole, or quinoline moieties” (2009).

Key:
Type in all cases: functional
Medicago sativa [1] = assay: Herbicidal activity against Medicago sativa (alfalfa) assessed as inhibition of herb growth at 1.5 kg/ha during preemergence treatment protocol; conditions: pre-emergence, read-out: GI
Amaranthus retroflexus [2] = assay: Herbicidal activity against Amaranthus retroflexus assessed as inhibition of herb growth at 1.5 kg/ha during postemergence treatment protocol; conditions: post-emergence, read-out: GI
Digitaria sanguinalis [3] = assay: Herbicidal activity against hairy Digitaria sanguinalis (hairy crabgrass) assessed as inhibition of herb growth at 1.5 kg/ha during preemergence treatment protocol; conditions: pre-emergence, read-out: GI
Digitaria sanguinalis [4] = assay: Herbicidal activity against hairy Digitaria sanguinalis (hairy crabgrass) assessed as inhibition of herb growth at 1.5 kg/ha during postemergence treatment protocol; conditions: post-emergence, read-out: GI
Brassica napus [5] = assay: Herbicidal activity against Brassica napus (oilseed rape) assessed as inhibition of herb growth at 1.5 kg/ha during postemergence treatment protocol; conditions: post-emergence, read-out: GI
Medicago sativa [6] = assay: Herbicidal activity against Medicago sativa (alfalfa) assessed as inhibition of herb growth at 1.5 kg/ha during postemergence treatment protocol; conditions: post-emergence, read-out: GI
Brassica napus [7] = assay: Herbicidal activity against Brassica napus (oilseed rape) assessed as inhibition of herb growth at 1.5 kg/ha during preemergence treatment protocol; conditions: pre-emergence, read-out: GI
Cucumis sativus = assay: Plant growth regulatory activity in Cucumis sativus (cucumber) seeds assessed as stimulation of radicle growth level at 10 mg/mL
Amaranthus retroflexus [8] = assay: Herbicidal activity against Amaranthus retroflexus assessed as inhibition of herb growth at 1.5 kg/ha during preemergence treatment protocol; conditions: pre-emergence, read-out: GI

SMILES	inhibition of growth at 1500 g/ha (Medicago sativa [1]) [%]	inhibition of growth at 1500 g/ha (Amaranthus retroflexus [2]) [%]	inhibition of growth at 1500 g/ha (Digitaria sanguinalis [3]) [%]	inhibition of growth at 1500 g/ha (Digitaria sanguinalis [4]) [%]	inhibition of growth at 1500 g/ha (Brassica napus [5]) [%]	inhibition of growth at 1500 g/ha (Medicago sativa [6]) [%]	inhibition of growth at 1500 g/ha (Brassica napus [7]) [%]	Activity (Cucumis sativus) [%]	inhibition of growth at 1500 g/ha (Amaranthus retroflexus [8]) [%]
CCOCCOC(=O)/C(C#N)=C(\NCc1ccc2ccccc2n1)C(C)C	0	77.8	0	50.6	72	0	0	115	0
CCOCCOC(=O)/C(C#N)=C(\NCc1ccc2ncccc2c1)SC	0	100	10	66.2	100	0	10	145	0
CCOCCOC(=O)/C(C#N)=C(\NCc1ccc2ncccc2c1)C(C)C	0	0	0	0	73.7	10	0	85	0
CCOCCOC(=O)/C(C#N)=C(\NCc1cnc2ccccc2c1)C(C)C	0	100	0	45.5	100	0	18.2	85	41.9
CCOCCOC(=O)/C(C#N)=C(\NCc1cnc2ccccc2c1)SC	10	100	0	48.1	100	67.8	74.9	110	35.5
CCOCCOC(=O)/C(C#N)=C(\NCc1coc(-c2ccccc2)n1)SC	5	0	0	0	34.7	0	5	50	5
CCOCCOC(=O)/C(C#N)=C(\NCc1coc(-c2ccccc2)n1)C(C)C	0	71.4	5	87	87.3	0	0	60	10
CCOCCOC(=O)/C(C#N)=C(\NCc1coc(-c2cccc(Cl)c2)n1)SC	10	0	0	6.5	25.4	0	0	80	0
CCOCCOC(=O)/C(C#N)=C(\NCc1coc(-c2cccc(Cl)c2)n1)C(C)C	5	84.1	0	0	80.5	0	15	–	0
CCOCCOC(=O)/C(C#N)=C(\NCc1ncc(C)o1)SC	0	100	0	10	10	0	0	–	43.9
CCOCCOC(=O)/C(C#N)=C(\NCc1ncc(C(C)C)o1)SC	0	26.8	0	0	5	0	10	63.7	5
CCOCCOC(=O)/C(C#N)=C(\NCc1ncc(C(C)C)o1)C(C)C	0	80.5	0	10	100	15	52.7	98.2	0
CCOCCOC(=O)/C(C#N)=C(\NCc1nc(-c2ccc(C(F)(F)F)cc2)no1)SC	0	0	0	37.5	100	0	0	–	0
CCOCCOC(=O)/C(C#N)=C(\NCc1nc(-c2ccc(C(F)(F)F)cc2)no1)C(C)C	0	100	10	57.5	100	43.2	48.4	–	50.3
CCOCCOC(=O)/C(C#N)=C(\NCc1nc(-c2ccc(F)cc2)no1)SC	0	0	0	10	15	0	10	–	0
CCOCCOC(=O)/C(C#N)=C(\NCc1nc(-c2ccc(F)cc2)no1)C(C)C	0	100	0	82.5	100	10	88	–	0
CCOCCOC(=O)/C(C#N)=C(/CC)NCc1nc(-c2ccc(F)cc2)no1	0	0	0	0	0	0	15	–	0
CCOCCOC(=O)/C(C#N)=C(\NCc1ccc2ccccc2n1)SC	0	0	0	0	35.6	15	0	60	0
CCOCCOC(=O)/C(C#N)=C(/CC)NCc1ccc2ccccc2n1	0	0	0	0	8.5	0	0	95.4	20
